Read-outs that look alike come from different tables or passages of the source.
Assays:
[1] = test system: pooled human liver microsomes; assay: Pooled human liver microsomes in two-step luminescent CYP450 reaction; conditions: for Effect on activity against Luc BE: substrate Luc BE, ketoconazole 100 micromolar; for CYP450 activity detected with the substrate compared to Sf9 cell membranes: pooled human liver microsomes, 60 minutes at 37° C.
Protocol: FIG. 8. Pooled human liver microsomes in two-step luminescent CYP450 reactions. D-luciferin derivatives were incubated in a CYP450 reaction mix with pooled human liver microsomes for 60 minutes at 37° C. before combining with a luciferase reaction mixture. For controls liver microsomes were replaced with control (no CYP450) Sf9 cell membranes. Luminescence was read within 12 minutes of combining the reactions on a Berthold Orion luminometer. […] Values labeled “nt” are vehicle controls.
(§1) In this Example, a procedure for a two-step CYP450/luciferase assay is provided. Luciferin derivatives were evaluated as P450 substrates and luciferase pro-substrates using this procedure. 20 microliter CYP450 reactions were prepared at pH 7.4 in an amount of KPO4 buffer that is optimal for a given CYP450 isoform (100 mM for CYP1A1, CYP1A2, CYP2B6, CYP2D6 and CYP2E1; 50 mM for CYP2C8 and CYP2C19; 25 mM for 2C9 and for pooled human liver microsomes; 200 mM for CYP3A4). For CYP2A6 100 mM Tris at pH 7.5 was substituted for KPO4. […] Reactions were initiated by addition of 0.4 pmoles recombinant human CYP450 co-expressed with CYP450 reductase in Sf9 cell microsomal membranes or 4 microgram pooled human liver microsomes and incubation at 37° C. After an initial incubation period at 37° C. 20 microliter CYP450 reactions were mixed with an 80 microliter luciferase reaction mix. […] Assays were also performed using 50 microliter CYP450 and luciferase reaction volumes (e.g., FIG. 3, panel B, table 3). Light output was measured immediately in a Turner Reporter, Turner 20/20 or Berthold Orion luminometer. Because the calibration of instruments from different manufacturers varies the quantitation of light output is instrument-specific and direct comparisons between instruments cannot be made.

CYP2C9 [2] = molecular target: T1, CYP2C9 (Homo sapiens, UniProt P11712); assay: One-step CYP450/luciferase reaction; assay type: biochemical; design: purchased GenTest (Woburn, Mass.); host or cells: Sf9 insect cells; conditions: 37° C.
Protocol: (§2) Luciferin derivatives were evaluated as P450 substrates and luciferase pro-substrates using this procedure.
Target sequence in this assay (P11712 whole entry): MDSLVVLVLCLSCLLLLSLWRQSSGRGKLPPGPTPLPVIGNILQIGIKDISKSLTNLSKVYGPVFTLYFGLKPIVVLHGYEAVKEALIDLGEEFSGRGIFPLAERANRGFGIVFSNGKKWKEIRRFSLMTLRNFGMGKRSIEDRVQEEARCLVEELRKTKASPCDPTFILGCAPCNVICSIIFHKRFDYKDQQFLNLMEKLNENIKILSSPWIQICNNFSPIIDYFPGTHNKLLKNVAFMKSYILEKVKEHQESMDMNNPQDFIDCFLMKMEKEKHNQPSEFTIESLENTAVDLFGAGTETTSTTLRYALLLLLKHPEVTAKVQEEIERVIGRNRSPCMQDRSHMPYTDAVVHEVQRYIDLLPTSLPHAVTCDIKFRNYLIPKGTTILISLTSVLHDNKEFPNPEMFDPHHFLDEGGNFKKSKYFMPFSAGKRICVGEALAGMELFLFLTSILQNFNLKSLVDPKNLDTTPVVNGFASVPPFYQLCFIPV

CYP1A2 = molecular target: T2, CYP1A2 (Homo sapiens, UniProt P05177); assay: Two-step CYP450/luciferase reaction, luciferin derivative evaluation as substrate; conditions: CYP450 incubation 60 minutes at 37° C., then luciferase
T2 sequence (P05177 1-516): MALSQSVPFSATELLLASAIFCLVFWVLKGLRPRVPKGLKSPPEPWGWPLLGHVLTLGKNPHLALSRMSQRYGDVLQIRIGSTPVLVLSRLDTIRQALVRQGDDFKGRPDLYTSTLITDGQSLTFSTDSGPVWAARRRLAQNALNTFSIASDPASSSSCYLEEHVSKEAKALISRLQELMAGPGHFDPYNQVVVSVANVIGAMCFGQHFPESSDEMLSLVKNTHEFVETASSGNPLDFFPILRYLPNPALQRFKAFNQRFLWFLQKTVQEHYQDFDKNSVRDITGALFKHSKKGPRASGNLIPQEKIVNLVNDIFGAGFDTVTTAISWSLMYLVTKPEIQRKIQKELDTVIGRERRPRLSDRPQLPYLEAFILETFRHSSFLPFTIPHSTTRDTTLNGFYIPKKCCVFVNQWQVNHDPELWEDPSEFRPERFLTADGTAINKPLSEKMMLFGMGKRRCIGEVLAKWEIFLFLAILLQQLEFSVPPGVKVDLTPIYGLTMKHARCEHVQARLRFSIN
Protocol: as §1
(§3) O-dealkylation and hydroxylation are common CYP450 catalyzed xenobiotic transformations (9). […] The CYP450 activities tested are contained in microsome fractions from insect cells that over-express a single recombinant human CYP450 isoform in combination with NADPH CYP450 reductase. It was reasoned that if CYP450s dealkylated or hydroxylated the luciferin derivatives at the 6′ position, authentic luciferin would be generated that could be detected enzymatically in a light generating firefly luciferase reaction as described by the equation in FIG. 1.
(§4) The panel included CYP1A1, CYP1A2, CYP2A6, CYP2B6, CYP2C8, CYP2C9, CYP2C19, CYP2D6, CYP2E1 and CYP3A4. After an initial incubation with CYP450, luciferase and its requisite cofactors were added and light output was monitored (FIGS. 3 and 9).

CYP2C9 [3] = molecular target: T1, CYP2C9; assay: as above; conditions: for Light output over controls with CYP2C9: CYP450 incubation 60 minutes at 37° C., then luciferase
Protocol: as §1, §3, §4
Target sequence in this assay (P11712 whole entry): as the sequence (P11712 whole entry) above

CYP2C9 [4] = molecular target: T1, CYP2C9; assay: CYP450-catalyzed conversion of luciferin derivatives to luciferin (HPLC); assay type: biochemical; conditions: 100 micromolar, 37 C, HPLC with fluorescence detection
Target sequence in this assay (P11712 whole entry, species assumed): as the sequence (P11712 whole entry) above

CYP2C8 = molecular target: T3, CYP2C8 (Homo sapiens, UniProt P10632); conditions: CYP450 incubation 60 minutes at 37° C., then luciferase
T3 sequence (P10632 1-490): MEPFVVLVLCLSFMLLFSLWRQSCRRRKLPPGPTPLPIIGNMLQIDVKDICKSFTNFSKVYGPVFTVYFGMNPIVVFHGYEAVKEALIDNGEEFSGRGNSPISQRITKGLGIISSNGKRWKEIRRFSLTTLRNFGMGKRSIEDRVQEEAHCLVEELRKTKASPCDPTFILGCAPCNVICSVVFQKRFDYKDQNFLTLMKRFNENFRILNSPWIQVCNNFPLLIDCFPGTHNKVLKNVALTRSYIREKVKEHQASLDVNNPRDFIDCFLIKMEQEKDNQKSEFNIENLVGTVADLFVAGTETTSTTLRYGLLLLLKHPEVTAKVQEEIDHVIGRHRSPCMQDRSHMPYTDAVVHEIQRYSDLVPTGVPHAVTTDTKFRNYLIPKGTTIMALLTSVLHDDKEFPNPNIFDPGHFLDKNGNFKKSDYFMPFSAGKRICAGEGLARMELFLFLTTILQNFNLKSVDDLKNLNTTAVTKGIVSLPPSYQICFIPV
Protocol: as §1, §3, §4

CYP3A4 [5] = molecular target: T4, CYP3A4 (Homo sapiens, UniProt P08684)
T4 sequence (P08684 whole entry): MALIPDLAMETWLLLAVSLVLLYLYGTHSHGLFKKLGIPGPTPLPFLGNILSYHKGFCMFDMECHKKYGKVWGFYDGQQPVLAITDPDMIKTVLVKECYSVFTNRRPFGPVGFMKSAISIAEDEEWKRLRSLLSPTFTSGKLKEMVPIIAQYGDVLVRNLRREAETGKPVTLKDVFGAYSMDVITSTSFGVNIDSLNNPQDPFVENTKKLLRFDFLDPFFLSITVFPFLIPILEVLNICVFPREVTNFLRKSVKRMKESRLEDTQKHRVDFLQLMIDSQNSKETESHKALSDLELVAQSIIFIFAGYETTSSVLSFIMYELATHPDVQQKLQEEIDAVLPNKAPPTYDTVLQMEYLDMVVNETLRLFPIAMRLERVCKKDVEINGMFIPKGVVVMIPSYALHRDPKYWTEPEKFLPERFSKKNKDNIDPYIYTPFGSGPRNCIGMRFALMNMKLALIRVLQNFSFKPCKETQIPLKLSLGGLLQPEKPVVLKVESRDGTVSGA
Protocol: as §1, §3, §4

CYP3A4 [6] = molecular target: T4, CYP3A4; assay: One-step CYP450/luciferase reaction; conditions: 37° C.
Protocol: as §2

CYP1A1 [7] = molecular target: T5, CYP1A1 (Homo sapiens, UniProt P04798); conditions: CYP450 incubation 60 minutes at 37° C., then luciferase
T5 sequence (P04798 1-512): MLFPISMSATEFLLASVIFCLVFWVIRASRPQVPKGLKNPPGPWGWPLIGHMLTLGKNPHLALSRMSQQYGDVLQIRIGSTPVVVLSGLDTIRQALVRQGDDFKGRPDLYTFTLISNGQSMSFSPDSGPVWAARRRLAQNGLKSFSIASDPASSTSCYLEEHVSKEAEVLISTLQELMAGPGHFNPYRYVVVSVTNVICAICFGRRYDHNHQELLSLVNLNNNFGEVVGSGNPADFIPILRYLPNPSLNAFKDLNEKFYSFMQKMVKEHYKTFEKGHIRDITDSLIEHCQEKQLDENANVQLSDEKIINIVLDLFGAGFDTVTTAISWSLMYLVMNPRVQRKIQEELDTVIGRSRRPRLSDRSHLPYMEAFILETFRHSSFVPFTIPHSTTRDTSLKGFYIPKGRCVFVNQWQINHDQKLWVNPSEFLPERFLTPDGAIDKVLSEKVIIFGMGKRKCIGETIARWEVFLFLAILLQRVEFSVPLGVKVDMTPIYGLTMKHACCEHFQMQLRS
Protocol: as §1, §3, §4

CYP1A1 [8] = molecular target: T5, CYP1A1; assay: CYP450-catalyzed conversion of luciferin derivatives to luciferin (HPLC); conditions: 100 micromolar, 37 C, HPLC with fluorescence detection
Protocol: At various time intervals, the reactions were stopped by the addition of Tergitol to 0.1% (v/v) and flash freezing in liquid nitrogen. 95 microliter aliquots of each reaction mixture were subjected to fractionation by HPLC. […] Separation was achieved on a 5 micron Adsorbosphere HS C18 column (Alltech Associates) with a solvent gradient of 0.05M KH2PO4/pH 6 (solvent A) and 80:20 acetonitrile/water (solvent B). The gradient conditions used were 15% B to 95% B over 10 min.

[9] = alpha-naphthoflavone 10 micromolar
[10] = two-step, 37° C., up to 60 minutes

O=c1cc(-c2ccccc2)oc2c1ccc1ccccc12 [Alpha-Naphpthoflavone, alpha-naphthoflavone]
Effect on activity against Luc BE [1, 9]: slight stimulation
Inhibition of microsomal light output ([1]; substrates H-Luc, Luc ME, Luc EE, Luc BE, alpha-naphthoflavone 10 micromolar): lack of inhibition

O=C(O)C1CSC(c2nc3ccccc3s2)=N1 (stereo not drawn) [H-Luc, 6′-Deoxyluciferin]
Light output over time, one-step with CYP2C9 (CYP2C9 [2]): increasing to a maximum by about 30 minutes and declining thereafter
CYP450 activity detected with the substrate compared to Sf9 cell membranes [1]: significant amounts of CYP450 activity was detected
Light output over controls with CYP1A2 (CYP1A2): increased light output over controls
Light output over controls with CYP2C9 (CYP2C9 [3]): increased light output over controls
Time-dependence of light output on CYP2C9/substrate incubation (CYP2C9 [3]; [10]): increased in a linear fashion for up to 60 minutes
Conversion to luciferin by CYP2C9 (CYP2C9 [4]): confirmed

CC(=O)N1CCN(c2ccc(OCC3COC(Cn4ccnc4)(c4ccc(Cl)cc4Cl)O3)cc2)CC1 (stereo not drawn) [Ketoconazole, ketoconazole]
Inhibition of light output with H-Luc ([1]; substrate H-Luc, sulfaphenazole and ketoconazole 100 micromolar): Partial inhibition
Effect on activity against Luc BE [1, 9]: Inhibition

O=C(O)[C@H]1CSC(c2nc3ccc(OCc4ccccc4)cc3s2)=N1 [Luc BE, Luciferin 6′-benzyl ether]
CYP450 activity detected with the substrate compared to Sf9 cell membranes [1]: significant amounts of CYP450 activity was detected
Light output over controls with CYP2C8 (CYP2C8): increased significantly
Light output over controls with CYP3A4 (CYP3A4 [5]; CYP450 incubation 60 minutes at 37° C., then luciferase): increased significantly
Time-dependence of light output on CYP3A4/substrate incubation (CYP3A4 [5]; [10]): increased in a linear fashion for up to 60 minutes
Difference in light output to -CYP450 control, one-step with CYP3A4 (CYP3A4 [6]): modest
Light output over controls with CYP2C9 (CYP2C9 [3]): increased significantly

O=C(O)[C@H]1CSC(c2nc3ccc(OCCCl)cc3s2)=N1 [Luc CEE, Luciferin 6′-(2-chloroethyl)ether]
Light output over controls with CYP1A1 (CYP1A1 [7]): increased significantly
Light output over controls with CYP2C8 (CYP2C8): increased significantly
Light output over controls with CYP1A2 (CYP1A2): increased significantly
Light output over controls with CYP2C9 (CYP2C9 [3]): increased significantly
Conversion to luciferin by CYP1A1 (CYP1A1 [8]): confirmed

CCOc1ccc2nc(C3=N[C@@H](C(=O)O)CS3)sc2c1 [Luc EE, luciferin 6′ ethyl ether]
CYP450 activity detected with the substrate compared to Sf9 cell membranes [1]: significant amounts of CYP450 activity was detected
Light output over controls with CYP1A1 (CYP1A1 [7]): increased significantly
Light output over controls with CYP2C8 (CYP2C8): increased significantly
Light output over controls with CYP1A2 (CYP1A2): increased significantly
Light output over controls with CYP2C9 (CYP2C9 [3]): increased significantly

Nc1ccc(S(=O)(=O)Nc2ccnn2-c2ccccc2)cc1 [Sulfaphenazole, sulfaphenazole]
Inhibition of light output with H-Luc [1]: near complete inhibition
